Measured values reported in publication PMC9394284, “Discovery of Novel Dual Adenosine A2A and A1 Receptor Antagonists with 1H-Pyrazolo[3,4-d]pyrimidin-6-amine Core Scaffold as Anti-Parkinson’s Disease Agents” (Pharmaceuticals, 2022).

How the values were obtained:
[1] = biological target: T1, hA2A receptors (Homo sapiens, UniProt P29274); experiment: radioligand binding to human A2A receptors, HEK-293 membranes
T1 construct: purchased PerkinElmer RBHA2AM
Experimental: The binding affinities of synthesized compounds to human A2A receptors (hA2AR) were measured by assessing competitive binding of ligands to radioligand […] using membrane preparations of human recombinant HEK-293 cells expressing human A2A receptors.
The radioligand-binding assays for adenosine receptors were performed at Eurofins Discovery Services (Panlabs, Taiwan). Briefly, stock solutions of the compounds were prepared in DMSO and further diluted with the incubation buffer to the desired concentration. Final DMSO concentrations in the assay were 1.0%. […] Nonspecific binding was estimated in the presence of 100 μM R(-)-PIA. Membranes were filtered and washed 3 times and the filters were counted to determine specifically bound [^3H]DPCPX. Chemical compounds were screened at 10 μM. […] Nonspecific binding was estimated in the presence of 50.0 μM NECA. […] Nonspecific binding was estimated in the presence of 100 μM NECA. Membranes were filtered and washed 3 times and the filters were counted to determine [^3H]MRS1754 specifically bound. […] Nonspecific binding was estimated in the presence of 1.0 μM IB-MECA.
IC50 values were determined by a nonlinear, least-squares regression analysis using MathIQ^TM (ID Business Solutions Ltd., Guildford, UK). […] The Hill coefficient (nH), which defines the slope of the competitive binding curve, was calculated using MathIQ^TM.

[2] = metabolic stability in cryopreserved dog hepatocytes; settings: dog hepatocytes; 1 μM 11o; little/no compound depletion
Experimental: Metabolic stability of 11o was determined in cryopreserved hepatocytes from mice, rats, dogs, monkeys and human according to the SOPs of Frontage Laboratories Inc. Briefly, cryopreserved hepatocytes for pre-clinical animals and for human (BioIVT, Westbury, NY, USA) were thawed in a 37 °C water bath with gentle shaking until ice had almost melted. The suspensions were immediately transferred to a centrifuge tube (50 mL) containing pre-warmed thawing media at 37 °C with gentle handshaking to prevent the cells from settling. Cell suspensions were centrifuged at 50× g and 4 °C for 5 min. The supernatant was discarded and the pellets were resuspended in prewarmed incubation media (5 mL) at 37 °C. The percentage of viable cells in the suspension was determined by Trypan blue staining method to ensure viability of ≥70 %. […] The samples were centrifuged and aliquots of the supernatant were analyzed for parent compounds by LC/MS/MS using suitable multiple reaction monitoring (MRM) transitions. […] The disappearance of 11o and midazolam was monitored by LC/MS/MS (MRM) analysis of the hepatocyte extracts at each time point. The peak area ratio of the analyte to internal standard was obtained for each sample and the rate of disappearance of 11o was assessed by comparing the peak area ratios at various time points to the peak area ratio obtained at t = 0. The t1/2 is obtained (using the linear portion of semi-log plot of the area ratio vs. time) and the CLint values determined using well-stirred model.

[3] = tested on: MPTP-lesioned mouse model; experiment: MPTP-lesioned mouse model of Parkinson's disease; format: in vivo, C57BL/6J mice
Source text: In a subsequent study, we investigated the therapeutic efficacy of 11o in PD using an MPTP-lesioned mouse model. This MPTP-lesion mouse model is one of the most well-established PD models and causes an approximately 90% loss of striatal dopamine, as analyzed using HPLC 7 days after the administration of the last dose of MPTP [13].
Male C57BL/6J mice of 10 weeks of age were purchased from Charles River Laboratories (Charles River Laboratories, Freiburg, Germany) and maintained at QPS Austria. All procedures described were reviewed and approved by IACUC at QPS Austria. Animal studies conformed to the Austrial guidelines for the care and use of laboratory animals (Tierversuchsgesetz 2012-TVG 2012, BGB1. I Nr. 114/2012). […]
To test individual nest-building behavior, mice were housed individually in cages containing wood-chip bedding and one square of pressed cotton (‘nestlet’). […] The nestlet was introduced on the day before the evaluation of the nest status in about 2 to 3 h before the dark phase was initiated, and the nest-building behavior was evaluated on the following day of the experiment within 2~3 h after the light-phase start. […] Manipulation of the nestlet and the constitution of the built nest were assessed according to five-point scale as follows: 1. […]

[4] = average of duplicate experiments

T1 sequence (P29274 whole entry): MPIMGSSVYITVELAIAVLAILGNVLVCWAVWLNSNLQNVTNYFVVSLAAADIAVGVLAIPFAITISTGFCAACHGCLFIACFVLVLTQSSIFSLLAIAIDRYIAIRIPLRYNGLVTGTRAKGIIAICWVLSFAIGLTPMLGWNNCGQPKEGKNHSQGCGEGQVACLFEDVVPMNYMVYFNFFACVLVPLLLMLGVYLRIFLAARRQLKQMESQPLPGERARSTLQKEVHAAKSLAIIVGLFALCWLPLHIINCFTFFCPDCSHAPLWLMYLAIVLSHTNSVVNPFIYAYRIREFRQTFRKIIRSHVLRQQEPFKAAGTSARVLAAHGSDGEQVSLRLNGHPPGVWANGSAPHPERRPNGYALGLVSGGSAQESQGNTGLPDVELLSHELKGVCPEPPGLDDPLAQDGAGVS

With Cc1cc(Cn2ncc3c(-c4cccc(C#N)c4F)nc(N)nc32)ccc1N [11o, 3-(6-Amino-1-(4-amino-3-methylbenzyl)-1H-pyrazolo[3,4-d]pyrimidin-4-yl)-2-fluorobenzonitrile] the “nH (Hill coefficient), A2A” value [1] was 0.79, the IC50 [1, 4] was 24 nM and the Ki [1, 4] was 13.3 nM. The “stability in dog hepatocytes (in words)” value [2] was “stable in dog hepatocytes”, the nest-building activity ([3]; MPTP-lesioned mice, intranasal 1 and 10 mg/kg, difference not significant) was “partially restored the activity level to near sham level” and the “rescue of striatal dopamine depletion caused by MPTP” value ([3]; once daily for 7 days, doses up to 10 mg/kg, data not shown) was “unable to rescue dopamine depletion”.
